Experimental findings from patent publication US11312940B2, “Progenitor cells and methods for preparing and using the same” (University of Louisville Research Foundation, Inc., priority 2015, dated 2022) are described below.

One experiment relates to BM HSPCs. Nature of the experiment: Total number of BM HSPCs by FACS after SexH administration. In kind it is in vivo, mouse. As to conditions: male and female mice, 10-day administration. Here is the method:
(§1) Hormone treatment was performed for 10 days.
(§2) All mAbs were added at saturating concentrations, and the cells were incubated for 30 minutes on ice, washed twice, and then resuspended for sorting in cell-sorting medium containing 1× Hank's Balanced Salt Solution without phenol red (GIBCO™, a division of Thermo Fisher Scientific Inc., Waltham, Mass.), 2% heat-inactivated fetal calf serum (GIBCO™), 10 mM HEPES buffer (GIBCO™), and 30 U/mL gentamicin (GIBCO™) at a concentration of 5×10^6 cells/mL. Sca-1^+/Lin^−/CD45^− cells (VSELs) and Sca-1^+/Lin^−/CD45^+ cells (HSCs) were isolated according to the gating and sorting strategy described in Zuba-Surma & Ratajczak, 2010 and Suszynska et al, 2014b. Proliferation events in BM-derived VSEL and HSC populations were examined by BrdU incorporation followed by flow cytometry.

The subject of experiment [1] is Sca-1+/Lin-/CD45- cells (VSELs). Kind of experiment: In vivo BrdU incorporation into BM VSELs. More on the design: species or system mouse. As to conditions: for BrdU incorporation response of Sca-1+/Lin-/CD45- cells (ranking): 10-day administration. As for the experimental part:
as §1, §2
(§3) Adult C57BL/6 mice (4-8 weeks old; Jackson Laboratory) were intraperitoneally (i.p.) were injected daily with 1 mg of BrdU solution to evaluate whether SexHs affect proliferation of stem cells, and the final injection of BrdU was performed 1 hour before sacrificing the animals (see Grymula et al, 2014). […] Samples were analyzed with a Navios flow cytometer (Beckman Coulter).

The subject of experiment [2] is Sca-1+/Lin-/CD45+ cells (HSPCs). Nature of the experiment: In vivo BrdU incorporation into BM HSPCs. More on the design: species or system mouse. As for the experimental part:
as §1, §2, §3

A further experiment relates to BM VSELs. Kind of experiment: Total number of BM VSELs by FACS after SexH administration. In kind it is in vivo, mouse. The conditions noted are these: 10-day administration; for increase in total number of VSELs/10^6 BMMNCs (ranking): female mice; for increase in total number of VSELs/10^6 BMMNCs: male BM. Here is the method: as §1, §2
(In general: In flow cytometry, cells or beads pass a laser one at a time.)

For experiment [3], the system named is sublethally irradiated mice. Kind of experiment: Recovery of PB counts in sublethally irradiated mice. It is filed as in vivo, mouse. As to conditions: 650 cGy, injections for 10 days. As for the experimental part: Fifty microliters of PB was taken from the retro-orbital plexus of the mice and collected into microvette EDTA-coated tubes (Sarstedt AG & Co., Nümbrecht, Germany). Samples were run within 2 hours of collection on a HEMAVET® 950 hematology analyzer (Drew Scientific Inc., Oxford, Conn.) as described in Borkowska et al., 2014.
Blood was collected on days 0, 3, 7, 14, 21, and 28, and white blood cell (WBC), platelet, red blood cells (RBC), and hematocrit were measured on a HEMAVET® instrument (HV950FS; Drew Scientific Inc.) as described in Borkowska et al, 2014. Experiments were performed twice (each time, n=5).

As to `C#C[C@]1(O)CC[C@H]2[C@@H]3CCC4=Cc5oncc5C[C@]4(C)[C@H]3CC[C@@]21C` [danazol], in the experiment on BM HSPCs, the “increase in BM HSPCs/10^6 BMMNCs (ranking)” value was “highest stimulatory effect”. Moreover, the “BrdU incorporation response of Sca-1+/Lin-/CD45- cells (ranking)” value in experiment [1] (female and male cells) is given as “highest response”. The “increase in percentage of BrdU+ Sca-1+/Lin-/CD45+ cells (ranking)” value in experiment [2] (10-day administration) is “highest increases”. In the experiment on BM VSELs, the “increase in total number of VSELs/10^6 BMMNCs (ranking)” value is reported as “most effective” and the “increase in total number of VSELs/10^6 BMMNCs” value is given as “about 2.5 fold”. The leucocyte counts entry in experiment [3] is on record as “statistically significant increase”.
Consider `C[C@]12CC[C@@H]3c4ccc(O)cc4CC[C@H]3[C@@H]1CC[C@@H]2O` [estrogen, estradiol], for which, in the experiment with BM VSELs, the “increase in total number of VSELs/10^6 BMMNCs” value is given as “about 2.5 fold”.
With `CC(=O)[C@H]1CC[C@H]2[C@@H]3CCC4=CC(=O)CC[C@]4(C)[C@H]3CC[C@]12C` [progesterone], the “BrdU incorporation in Sca-1+/Lin-/CD45- VSELs” value in experiment [1] (ovariectomized female mice) was “enhanced BrdU incorporation”. The “BrdU incorporation into Sca1+/Lin-/CD45+ HSPCs” value in experiment [2] (ovariectomized female mice) is reported as “small increase in BrdU incorporation”.

B1: prolactin (protein, UniProt P01236 29-227, looked up)
Prolactin: LPICPGGAARCQVTLRDLFDRAVVLSHYIHNLSSEMFSEFDKRYTHGRGFITKAINSCHTSSLATPEDKEQAQQMNQKDFLSLIVSILRSWNEPLYHLVTEVRGMQEAPEAILSKAVEIEEQTKRLLEGMELIVSQVHPETKENEIYPVWSGLPSLQMADEESRLSAYYNLLHCLRRDSHKIDNYLKLLKCRIIHNNNC
notes: pituitary sex hormone, purchased from ProSpec
As for B1, the “BrdU incorporation response of Sca-1+/Lin-/CD45- cells (ranking)” value in experiment [1] (female cells) is reported as “highest response”. Also, in the experiment with BM VSELs, the “increase in total number of VSELs/10^6 BMMNCs (ranking)” value was “most effective” and the “increase in total number of VSELs/10^6 BMMNCs” value is reported as “about 2.5 fold”. Further, the leucocyte counts result in experiment [3] is “statistically significant increase”.
